Reference: patent US10144734B2, “Substituted pyrazolo[1,5-A]pyridine compounds as RET kinase inhibitors” (Array BioPharma, Inc., priority 2016, dated 2018)
pIC50: −log10 of the molar value.

Molecular target: HEK-293 cells expressing a Kif5b-RET fusion protein (Homo sapiens, UniProt P07949)
Experiment: cell-based

HEK-293 cells expressing a Kif5b-RET fusion protein, sequence (P07949 29-1114 limits assumed): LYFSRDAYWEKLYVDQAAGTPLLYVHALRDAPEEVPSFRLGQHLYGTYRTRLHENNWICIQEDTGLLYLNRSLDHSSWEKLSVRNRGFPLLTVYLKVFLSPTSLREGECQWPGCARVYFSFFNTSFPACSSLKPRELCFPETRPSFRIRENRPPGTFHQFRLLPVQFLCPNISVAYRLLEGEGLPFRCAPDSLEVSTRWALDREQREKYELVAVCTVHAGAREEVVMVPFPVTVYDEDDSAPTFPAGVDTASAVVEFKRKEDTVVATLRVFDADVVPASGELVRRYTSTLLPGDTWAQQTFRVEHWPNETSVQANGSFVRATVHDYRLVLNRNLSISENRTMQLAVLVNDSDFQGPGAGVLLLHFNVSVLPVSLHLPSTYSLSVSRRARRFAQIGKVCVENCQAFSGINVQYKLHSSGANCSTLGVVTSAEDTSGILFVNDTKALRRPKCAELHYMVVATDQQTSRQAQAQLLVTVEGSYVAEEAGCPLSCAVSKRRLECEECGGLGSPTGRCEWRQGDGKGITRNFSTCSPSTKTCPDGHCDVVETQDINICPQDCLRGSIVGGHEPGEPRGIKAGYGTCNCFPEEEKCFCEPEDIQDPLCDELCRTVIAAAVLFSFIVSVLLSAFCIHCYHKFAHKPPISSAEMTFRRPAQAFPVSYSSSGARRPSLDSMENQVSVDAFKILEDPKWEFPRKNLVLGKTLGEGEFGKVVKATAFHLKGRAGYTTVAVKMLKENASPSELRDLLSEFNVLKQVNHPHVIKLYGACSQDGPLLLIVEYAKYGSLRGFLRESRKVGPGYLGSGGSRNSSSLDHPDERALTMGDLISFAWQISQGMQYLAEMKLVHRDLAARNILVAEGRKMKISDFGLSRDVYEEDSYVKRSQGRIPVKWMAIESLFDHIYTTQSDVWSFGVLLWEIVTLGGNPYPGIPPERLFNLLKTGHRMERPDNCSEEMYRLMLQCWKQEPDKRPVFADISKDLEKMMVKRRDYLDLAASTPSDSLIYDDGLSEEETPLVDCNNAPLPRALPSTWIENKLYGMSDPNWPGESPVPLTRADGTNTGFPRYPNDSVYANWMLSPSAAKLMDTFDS

`CCOc1cc(-c2ccc(N3C[C@H]4C[C@@H](C3)[C@H]4Nc3nc(C)ccc3F)nc2)c2c(C#N)cnn2c1` [Example 377, 6-ethoxy-4-(6-((1R,5 S,6r)-6-((3-fluoro-6-methylpyridin-2-yl)amino)-3-azabicyclo[3.1.1]heptan-3-yl)pyridin-3-yl)pyrazolo[1,5-a]pyridine-3-carbonitrile] gave a pIC50 of 7.40.
